Drawing on patent US20240228476A1, “INHIBITORS OF PROTEIN TYROSINE PHOSPHATASE, COMPOSITIONS, AND METHODS OF USE” (BRISTOL-MYERS SQUIBB COMPANY, priority 2022, published 2024), this text covers EC50 and IC50 for 13 compounds.

Bounds are passed on as bounds.

Test [1] deals with phospho-STAT1 (Tyr701). Kind of test: Phospho-STAT1 (Tyr701) HTRF assay in B16-F10 cells. The test is classed as cell-based. The settings on record: mouse IFN-gamma 100 ng/ml, 1 hour, read-out: pSTAT1 HTRF B16 EC50. The procedure: B16-F10 cells (ATCC, Manassas, VA, #CRL-6475) were cultured in DMEM growth medium (ThermoFisher Scientific, Waltham, MA, #11995-040) supplemented with 10% heat inactivated FBS (ThermoFisher Scientific, #16140-071) and 1% pen/strep (ThermoFisher Scientific, #15140-122). The cells were seeded into a white opaque 384-well tissue culture treated microplate (PerkinElmer, Waltham, MA, #6007688) at a density of 10,000 cells/well in 20 uL total volume and incubated overnight at 37 C and 5% CO2. 30 nL of compounds dissolved in DMSO were then transferred from a source plate into target wells with the Echo650 acoustic liquid handler (Beckman Coulter, Indianapolis, IN). Negative control wells received 30 nL of DMSO only (0.15% final concentration). Plates were returned to the incubator for 1 hour and then cells treated with either 5 uL of growth medium or 5 uL of growth medium containing 500 ng/ml of recombinant mouse IFN-gamma protein (R&D Systems, Minneapolis, MN, #485-MI/CF, 100 ng/ml final concentration) using the Assist automated pipetting platform (INTEGRA Biosciences, Hudson, NH). Plates were incubated at 37 C for 1 hour and assayed for phosphorylated STAT1 protein levels with the phospho-STAT1 (Tyr701) HTRF kit (Cisbio, Bedford, MA, #63ADK026PEH) according to manufacturer's instructions. HTRF signal intensity was collected with the En Vision 2105 plate reader (PerkinElmer) 24 hours later and analyzed with the Dotmatics software platform to calculate compound IC50 values.

The target in test [2] is T1, PTPN2 (Homo sapiens, UniProt P17706).
T1 sequence (P17706 1-415): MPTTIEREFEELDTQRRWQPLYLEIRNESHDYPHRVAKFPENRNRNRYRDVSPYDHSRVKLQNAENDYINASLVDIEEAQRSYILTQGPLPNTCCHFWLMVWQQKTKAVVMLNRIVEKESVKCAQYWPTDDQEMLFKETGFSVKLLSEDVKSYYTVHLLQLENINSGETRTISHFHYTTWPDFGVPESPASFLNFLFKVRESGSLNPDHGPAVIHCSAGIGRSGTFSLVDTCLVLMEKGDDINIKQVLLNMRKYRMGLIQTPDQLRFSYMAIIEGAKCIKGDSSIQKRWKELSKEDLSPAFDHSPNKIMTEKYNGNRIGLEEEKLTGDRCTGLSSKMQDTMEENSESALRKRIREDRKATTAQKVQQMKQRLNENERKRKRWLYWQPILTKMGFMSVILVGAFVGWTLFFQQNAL
Kind of test: PTPN2 biochemical assay (PhosphoSens, substrate AQT0264). The settings on record: PhosphoSens substrate AQT0264 20 μM, room temperature; read-out: PTPN2 BCHEM IC50. The procedure:
A PhosphoSens® kinase assay was performed as described by the vendor (AssayQuant Technologies, Marlborough, MA). Briefly, 1000× solutions of compounds were prepared in DMSO via serial dilution of the 10 mM DMSO stocks using 3-fold intervals in a 384-well reagent plate. 50 nL of the compound dilution series was then added to the corresponding wells of a 384-well assay plate. 40 mL of 1.25× substrate (AQT0264) in 1× assay buffer (50 mM HEPES pH 7.5, 500 μM EGTA, […] MgCl2, 0.01% Brij-35, 1% Glycerol, 1 mM DTT, and 0.2 mg/mL BSA) was transferred to each well of the assay plate to achieve a final substrate concentration of 20 μM. Finally, […] of 5×PTPN2 enzyme stock was added to each well of the assay plate for a final enzyme concentration of […]. Reaction progress curves were collected by sampling fluorescence intensity at the excitation wavelength 360 nm (λex360) and emission wavelength 480 nm (λem480) every 71 seconds for one hour using a Synergy H4 plate reader (BioTek Instruments/Agilent Technologies, Winooski, VT) at room temperature.
(§1) For IC50 data, High DDT concentration and/or DiFMUP substrate assays were used; a skilled artisan may use either assay.

Test [3] deals with B16-F10 cells. The test can be described thus: Cell proliferation assay (CellTiter-Glo) in B16-F10 cells with IFN-gamma. It is filed as cell-based. The following applies: 120 h, mouse IFN-gamma 10 ng/mL, read-out: PTPN2 Prolif 5d B16F10 EC50. The procedure:
B16-F10 cells (ATCC, Manassas, VA, #CRL-6475) were cultured in DMEM growth medium (ThermoFisher Scientific, Waltham, MA, #11995-040) supplemented with 10% heat inactivated FBS (ThermoFisher Scientific, #16140-071) and 1% pen/strep (ThermoFisher Scientific, #15140-122). The cells were seeded into two white opaque 384-well tissue culture treated microplates (PerkinElmer, Waltham, MA, #6007688) at a density of 100 cells/well in 20 uL total volume and incubated overnight at 37 C and 5% CO2. 30 nL of compounds dissolved in DMSO were then transferred from a source plate into target wells with the Echo650 acoustic liquid handler (Beckman Coulter, Indianapolis, IN). Negative control wells received 30 nL of DMSO only (0.15% final concentration). Plates were returned to the incubator for 1 hour and then cells treated with either 5 uL of growth medium or 5 uL of growth medium containing 50 ng/ml of recombinant mouse IFN-gamma protein (R&D Systems, Minneapolis, MN, #485-MI/CF, 10 ng/mL final concentration) using the Assist automated pipetting platform (INTEGRA Biosciences, Hudson, NH). Plates were incubated at 37 C for 4 days and cell proliferation assayed with the CellTiter-Glo reagent (Promega, Madison, WI, #G7573, 25 uL per well). […] Off-target compound mediated cytotoxicity was identified by checking for growth inhibition in the absence of IFNg.
Background: Cellular ATP, detected with luciferase, serves as a proxy for viable cell number.

In test [4] the target is T1, PTPN2. The test can be described thus: Phosphatase activity assay using DiFMUP as substrate. The test is classed as biochemical. Further details: purchased MilliporeSigma SRP5075. The settings on record: 10 mM DTT, PTPN2 0.15 nM, room temperature, read-out: PTPN2 BCHEM DIFMUP IC50. The procedure: The PTPN2 biochemical assay was performed as follows, a 5× stock solution of human PTPN2 (SRP5075, MilliporeSigma, Burlington, MA) and a 1.25× stock solution of DiFMUP (D6567, ThermoFisher Scientific, Waltham, MA), were prepared in 1× reaction buffer consisting of 50 mM HEPES, pH 7.4, 1 mM EDTA, 150 mM NaCl, 0.2 mg/mL BSA, 100 U/mL catalase and 10 mM DTT. […] of the DiFMUP substrate solution, for a final concentration of […] DiFMUP substrate, was added to a Corning 3574 384-well, white, non-binding surface microtiter plate containing […] of serially diluted test compounds prepared in DMSO. The reactions were started with the addition of […] of the enzyme solution, for a final PTPN2 concentration of 0.15 nM, and monitored every 105 seconds for 60 minutes at λEX 360/λEM 460 in a BioTek Synergy HTX plate reader (Agilent Technologies, Santa Clara, CA) at room temperature. The initial linear portions of the progress curves were fit according to a linear equation to yield the slopes and converted to % inhibition based on a value of 100% activity for the no inhibitor treated control. IC50 values of each compound were obtained by fitting the % inhibition-compound concentration curves using Dotmatics software (Dotmatics, Bishops Stortford, Hertfordshire, England)
as §1

The EC50 is the concentration that produces a half-maximal response. Usually IC50 stands for the concentration at which inhibition is half-maximal. As to `Cc1cc(NCc2cc(O)c(N3CC(=O)NS3(=O)=O)c(F)c2)cc(C)n1` [EXAMPLE 2, 5-[4-[[(2,6-dimethyl-4-pyridyl)amino]methyl]-2-fluoro-6-hydroxy-phenyl]-1,1-dioxo-1,2,5-thiadiazolidin-3-one], the EC50 in test [1] worked out at 14000 nM; in test [3], 6000 nM. For the same compound, the 50% inhibitory concentration (IC50) in test [2] worked out at 10 nM; in test [4] it was 50 nM.
For `Cc1cc(NCc2cc(O)c(N3CC(=O)NS3(=O)=O)c(F)c2)ncn1` [EXAMPLE 26, 5-[2-fluoro-6-hydroxy-4-[[(6-methylpyrimidin-4-yl)amino]methyl]phenyl]-1,1-dioxo-1,2,5-thiadiazolidin-3-one], in that order: 1200 nM, 470 nM, 4 nM and 20 nM.
For `CC(C)(C)c1ccc(Oc2ccc(NCc3cc(O)c(N4CC(=O)NS4(=O)=O)c(F)c3)cn2)cc1` [EXAMPLE 31, 5-[4-[[[6-(4-tert-butylphenoxy)-3-pyridyl]amino]methyl]-2-fluoro-6-hydroxy-phenyl]-1,1-dioxo-1,2,5-thiadiazolidin-3-one], the EC50 in test [1] and in test [3] was over 15000 nM in each case. For the same compound, the IC50 is 20 nM in test [2] and 60 nM in test [4].
On to `O=C1CN(c2c(O)cc(CNc3cncc(Cl)c3)cc2F)S(=O)(=O)N1` [EXAMPLE 8, 5-[4-[[(5-chloro-3-pyridyl)amino]methyl]-2-fluoro-6-hydroxy-phenyl]-1,1-dioxo-1,2,5-thiadiazolidin-3-one], for which the EC50 in test [1] turned out to be 2670 nM; in test [3] it was 3900 nM. Also, the concentration for half-maximal inhibition (IC50) in test [2] amounted to 20 nM; in test [4] it was 220 nM.
For `COc1cncc(NCc2cc(O)c(N3CC(=O)NS3(=O)=O)c(F)c2)n1` [EXAMPLE 23, 5-[2-fluoro-6-hydroxy-4-[[(6-methoxypyrazin-2-yl)amino]methyl]phenyl]-1,1-dioxo-1,2,5-thiadiazolidin-3-one], in that order: 1920 nM, 1550 nM, 10 nM and 20 nM.
`COc1cnc(C)c(NCc2cc(O)c(N3CC(=O)NS3(=O)=O)c(F)c2)n1` [EXAMPLE 21, 5-[2-fluoro-6-hydroxy-4-[[(6-methoxy-3-methyl-pyrazin-2-yl)amino]methyl]phenyl]-1,1-dioxo-1,2,5-thiadiazolidin-3-one]: the results for the EC50 in test [1] and in test [3] were 7860 nM and 7770 nM, respectively. In test [4], the IC50 came out at 20 nM.
On the same counts, the results for `COc1nc(NCc2cc(O)c(N3CC(=O)NS3(=O)=O)c(F)c2)cnc1C` [EXAMPLE 25, 5-[2-fluoro-6-hydroxy-4-[[(6-methoxy-5-methyl-pyrazin-2-yl)amino]methyl]phenyl]-1,1-dioxo-1,2,5-thiadiazolidin-3-one] are 3430 nM, 11300 nM and 20 nM.
Take `Cc1nccc(NCc2cc(O)c(N3CC(=O)NS3(=O)=O)c(F)c2)n1` [EXAMPLE 24, 5-[2-fluoro-6-hydroxy-4-[[(2-methylpyrimidin-4-yl)amino]methyl]phenyl]-1,1-dioxo-1,2,5-thiadiazolidin-3-one]: the results for the EC50 in test [1] and in test [3] were 790 nM and 4280 nM, respectively. For the same compound, the concentration for half-maximal inhibition (IC50) in test [2] and in test [4] was 30 nM throughout.
Consider `N#Cc1ncc(NCc2cc(O)c(N3CC(=O)NS3(=O)=O)c(F)c2)cn1` [EXAMPLE 32, 5-((4-(1,1-dioxido-4-oxo-1,2,5-thiadiazolidin-2-yl)-3-fluoro-5-hydroxybenzyl)amino)pyrimidine-2-carbonitrile], for which the EC50 in test [1] amounted to 730 nM; in test [3], 1380 nM. In test [4], the IC50 stood at 1 nM.
Turning to `Cc1cc(C)nc(NCc2cc(O)c(N3CC(=O)NS3(=O)=O)c(F)c2)n1` [EXAMPLE 29, 5-[4-[[(4,6-dimethylpyrimidin-2-yl)amino]methyl]-2-fluoro-6-hydroxy-phenyl]-1,1-dioxo-1,2,5-thiadiazolidin-3-one], the EC50 in test [1] is 760 nM; in test [3], 4770 nM. For the same compound, in test [4], the IC50 came out at 60 nM.
For `CC(C)c1cnc(NCc2cc(O)c(N3CC(=O)NS3(=O)=O)c(F)c2)nc1` [EXAMPLE 11, 5-[2-fluoro-6-hydroxy-4-[[(5-isopropylpyrimidin-2-yl)amino]methyl]phenyl]-1,1-dioxo-1,2,5-thiadiazolidin-3-one], the values for the concentration giving a half-maximal response (EC50) in test [1] and in test [3] were 1770 nM and 6020 nM, respectively. Besides, the 50% inhibitory concentration (IC50) in test [2] was 140 nM.
On to `O=C1CN(c2c(O)cc(CNc3cnccc3-c3ccc(C(F)(F)F)cc3)cc2F)S(=O)(=O)N1` [EXAMPLE 30, 5-[2-fluoro-6-hydroxy-4-[[[4-[4-(trifluoromethyl)phenyl]-3-pyridyl]amino]methyl]phenyl]-1,1-dioxo-1,2,5-thiadiazolidin-3-one], for which the 50% effective concentration (EC50) in test [1] and in test [3] was over 15000 nM in each case. Moreover, the 50% inhibitory concentration (IC50) in test [4] was determined as 60 nM.
With `Cc1ccc(NCc2cc(O)c(N3CC(=O)NS3(=O)=O)c(F)c2)nn1` [EXAMPLE 28, 5-(2-fluoro-6-hydroxy-4-(((6-methylpyridazin-3-yl)amino)methyl)phenyl)-1,2,5-thiadiazolidin-3-one 1,1-dioxide], the figures for the EC50 in test [1] and in test [3] were 250 nM and 630 nM, respectively. The IC50 in test [4] is 20 nM.
